Columns and labels:
Assay type in all cases: functional
[1] = test system: Mus musculus; assay: Antidiabetic activity in Nicotinamide/Streptozotocin induced male Balb/c mouse model assessed as change in body weight at 10 mg/kg, po treated for 21 days relative to control; details: time 21 day
[2] = test system: Mus musculus; assay: Antidiabetic activity in Nicotinamide/Streptozotocin induced male Balb/c mouse model assessed as reduction in aspartate transaminase level in blood at 10 mg/kg, po treated for 21 days (reference value: 171 +/- 8.55 U/L); details: time 21 day
[3] = test system: Mus musculus; assay: Antidiabetic activity in Nicotinamide/Streptozotocin induced male Balb/c mouse model assessed as reduction in fasting blood glucose levels at 10 mg/kg, po measured after 7 days by glucometer analysis (reference value: 160.5 +/- 8.02 mg/dl); details: time 7 day
[4] = test system: Mus musculus; assay: Antidiabetic activity in Nicotinamide/Streptozotocin induced male Balb/c mouse model assessed as change in body weight at 10 mg/kg, po measured immediately (reference value: 25.08 +/- 1.25 g)
[5] = test system: Mus musculus; assay: Antidiabetic activity in Nicotinamide/Streptozotocin induced male Balb/c mouse model assessed as relative liver weight at 10 mg/kg, po treated for 21 days (reference value: 0.77 +/- 0.04 mg/g); details: time 21 day
[6] = test system: Mus musculus; assay: Antidiabetic activity in Nicotinamide/Streptozotocin induced male Balb/c mouse model assessed as reduction in fasting blood glucose levels at 10 mg/kg, po measured after 21 days by glucometer analysis (reference value: 180.5 +/- 9.02 mg/dl); details: time 21 day
[7] = test system: Mus musculus; assay: Antidiabetic activity in Nicotinamide/Streptozotocin induced male Balb/c mouse model assessed as reduction in HbA1c levels at 10 mg/kg, po treated for 21 days by Turbidimetric inhibition immunoassay; design: scale not given: the % may be the effect or the level left; details: time 21 day
[8] = test system: Mus musculus; assay: Antidiabetic activity in Nicotinamide/Streptozotocin induced male Balb/c mouse model assessed as Non-HDL-Cholesterol level in blood at 10 mg/kg, po treated for 21 days (reference value: 75 mg/dL); details: time 21 day
[9] = test system: Mus musculus; assay: Antidiabetic activity in Nicotinamide/Streptozotocin induced male Balb/c mouse model assessed as reduction in HDL-Cholesterol level in blood at 10 mg/kg, po treated for 21 days (reference value: 30 +/- 1.80 mg/dL); details: time 21 day
[10] = test system: Mus musculus; assay: Antidiabetic activity in Nicotinamide/Streptozotocin induced male Balb/c mouse model assessed as change in body weight at 10 mg/kg, po treated for 21 days (reference value: 16.62 +/- 0.83 g); details: time 21 day
[11] = test system: Mus musculus; assay: Antidiabetic activity in Nicotinamide/Streptozotocin induced male Balb/c mouse model assessed as reduction in Triglycerides level in blood at 10 mg/kg, po treated for 21 days (reference value: 61 +/- 3.05 mg/dL); details: time 21 day
[12] = test system: Mus musculus; assay: Antidiabetic activity in Nicotinamide/Streptozotocin induced male Balb/c mouse model assessed as reduction in VLDL-Cholesterol level in blood at 10 mg/kg, po treated for 21 days (reference value: 14 +/- 0.6 mg/dL); details: time 21 day
[13] = test system: Mus musculus; assay: Antidiabetic activity in Nicotinamide/Streptozotocin induced male Balb/c mouse model assessed as reduction in alanine aminotransferase level in blood at 10 mg/kg, po treated for 21 days (reference value: 111 +/- 5.05 U/L); details: time 21 day
[14] = test system: Mus musculus; assay: Antidiabetic activity in Nicotinamide/Streptozotocin induced male Balb/c mouse model assessed as reduction in total cholesterol level in blood at 10 mg/kg, po treated for 21 days (reference value: 121 +/- 6.05 mg/dL); details: time 21 day
[15] = test system: Mus musculus; assay: Antidiabetic activity in Nicotinamide/Streptozotocin induced male Balb/c mouse model assessed as reduction in LDL-Cholesterol level in blood at 10 mg/kg, po treated for 21 days (reference value: 46 +/- 2.30 mg/dL); details: time 21 day
[16] = test system: Mus musculus; assay: Antidiabetic activity in Nicotinamide/Streptozotocin induced male Balb/c mouse model assessed as reduction in fasting blood glucose levels at 10 mg/kg, po measured immediately by glucometer analysis (reference value: 127.50 +/- 6.87 mg/dl)
[17] = test system: Mus musculus; assay: Antidiabetic activity in Nicotinamide/Streptozotocin induced male Balb/c mouse model assessed as LDL-Cholesterol/HDL Cholesterol ratio in blood at 10 mg/kg, po treated for 21 days (reference value: 1.53); details: time 21 day
[18] = test system: Mus musculus; assay: Antidiabetic activity in Nicotinamide/Streptozotocin induced male Balb/c mouse model assessed as TC/HDL-Cholesterol ratio in blood at 10 mg/kg, po treated for 21 days (reference value: 4.03); details: time 21 day
[19] = test system: Mus musculus; assay: Antidiabetic activity in Nicotinamide/Streptozotocin induced male Balb/c mouse model assessed as reduction in fasting blood glucose levels at 10 mg/kg, po measured after 14 days by glucometer analysis (reference value: 168.5 +/- 8.42 mg/dl); details: time 14 day

CCC1=C(C)CN(C(=O)NCCc2ccc(S(=O)(=O)NC(=O)N[C@H]3CC[C@H](C)CC3)cc2)C1=O [GLIMEPIRIDE]
Activity [1]: 42.69%
Activity [2]: 153 U/L
Activity [3]: 143.5 mg/dL
Activity [4]: 12.94 g
Activity [5]: 1.23 mg/g
Activity [6]: 111.5 mg/dL
Activity [7]: 7.1%
Activity [8]: 82 mg/dL
Activity [9]: 37 mg/dL
Activity [10]: 22.58 g
Activity [11]: 56 mg/dL
Activity [12]: 12 mg/dL
Activity [13]: 97 U/L
Activity [14]: 108 mg/dL
Activity [15]: 26 mg/dL
Activity [16]: 109 mg/dL
Ratio [17]: 0.702
Ratio [18]: 2.91
Activity [19]: 108.5 mg/dL

From ChEMBL document CHEMBL6109039, “Designed and synthesized novel tripeptides targeting diabetes and its related pathologies” (Eur J Med Chem, 2025)
